These results are taken from patent publication US4200635A, “Antibacterially active amides” (Beecham Group Limited, priority 1977, dated 1980).

The test system of experiment [1] is Pasteurella multocida 1633. Description: MIC, serial dilution in nutrient agar, human bacteria. In kind it is cell-based. The conditions noted are these: nutrient agar containing 5% chocolated horse blood.
Experiment [2] deals with Haemophilus influenzae Q1. Described as above. It counts as cell-based. The following applies: nutrient agar containing 5% chocolated horse blood.
The test system of experiment [3] is Haemophilus influenzae Wy21. Described as above. In kind it is cell-based.
The test system of experiment [4] is Neisseria flavescens 8263. The experiment is described as above. The following applies: nutrient agar containing 5% chocolated horse blood. It counts as cell-based.
Experiment [5] concerns Bacillus subtilis 6633. The experiment is described as above. It counts as cell-based.
The test system of experiment [6] is Staph. aureus Oxford. Described as above. The following applies: Staphylococcus aureus; Staph. aureus Oxford; nutrient agar containing 5% chocolated horse blood; read-out: M.I.C. It counts as cell-based.
The test system of experiment [7] is Staph. aureus Russell. The description is as above. In kind it is cell-based. The conditions noted are these: Staphylococcus aureus; Staph. aureus Russell; nutrient agar containing 5% chocolated horse blood; read-out: M.I.C.
The subject of experiment [8] is Strep. pneumoniae CN33. The description is as above. The following applies: Streptococcus pneumoniae. In kind it is cell-based.
In experiment [9] the test system is Bord. bronchiseptica BO9. Briefly: MIC, veterinary bacteria. In kind it is cell-based. The following applies: Bordetella bronchiseptica, BO9.
Experiment [10] relates to Past. multocida PAI. Briefly: MIC, veterinary bacteria. It counts as cell-based. The following applies: Pasteurella multocida.
Experiment [11] deals with Past. haemolytica PA5. Description: MIC, veterinary bacteria. In kind it is cell-based. The conditions noted are these: Mannheimia haemolytica.
Experiment [12] relates to Staph. aureus B4. Description: MIC, veterinary bacteria. It counts as cell-based. The following applies: Staphylococcus aureus; Staph. aureus B4; read-out: M.I.C.
Experiment [13] deals with Staph. aureus 152. Briefly: MIC, veterinary bacteria. In kind it is cell-based. The following applies: Staphylococcus aureus.
In experiment [14] the test system is Strep. uberis SPU 1. Description: MIC, veterinary bacteria. It counts as cell-based. The conditions noted are these: Streptococcus uberis, SPU1; Strep. uberis SPU 1; read-out: M.I.C.
Experiment [15] has as its system Strep. dysgalactiae SPD 1. Description: MIC, veterinary bacteria. It counts as cell-based. The conditions noted are these: Streptococcus dysgalactiae, SPD1; Strep. dysgalactiae SPD 1; read-out: M.I.C.
Experiment [16] relates to M. dispar NCTC 10125. Description: in vitro MIC, anti-mycoplasmal activity. In kind it is cell-based. The following applies: Friis' broth, microtiter method. From the text:
(§1) Tables 3 and 4 show the in vitro MIC values (μg/ml) of the compounds of Examples 1 to 9 against a number of mycoplasma organisms, determined in Friis' broth using the microtiter method.

In experiment [17] the test system is M. fermentans MWKL4. Briefly: in vitro MIC, anti-mycoplasmal activity. In kind it is cell-based. The following applies: Mycoplasmopsis fermentans, Friis' broth, microtiter method.
From the text: as §1

Experiment [18] relates to M. pulmonis JB. Briefly: in vitro MIC, anti-mycoplasmal activity. The conditions noted are these: Mycoplasmopsis pulmonis, Friis' broth, microtiter method. It counts as cell-based.
From the text: as §1

Experiment [19] deals with M. suipneumoniae J2206/183b. Description: in vitro MIC, anti-mycoplasmal activity. In kind it is cell-based. The conditions noted are these: Mesomycoplasma hyopneumoniae, Friis' broth, microtiter method.
From the text: as §1

The subject of experiment [20] is M. pneumoniae 427a. Description: in vitro MIC, anti-mycoplasmal activity. The following applies: Mycoplasmoides pneumoniae, Friis' broth, microtiter method. In kind it is cell-based.
For experiment [21], the system named is Neisseria catarrhalis 1502. Briefly: MIC, serial dilution in nutrient agar, human bacteria. The conditions noted are these: Neisseria catarrhalis 1502; nutrient agar containing 5% chocolated horse blood; read-out: M.I.C. In kind it is cell-based.
For experiment [22], the system named is M. suipneumoniae Str. 11. Briefly: in vitro MIC, anti-mycoplasmal activity. It counts as cell-based. The following applies: Mesomycoplasma hyopneumoniae, Friis' broth, microtiter method.
In experiment [23] the test system is M. dispar H225. Briefly: in vitro MIC, anti-mycoplasmal activity. It counts as cell-based.
From the text: as §1

For experiment [24], the system named is M. pneumoniae ATCC 15492. Briefly: in vitro MIC, anti-mycoplasmal activity. In kind it is cell-based. The following applies: Mycoplasmoides pneumoniae, ATCC15492, Friis' broth, microtiter method.
From the text: as §1

The test system of experiment [25] is certain Gram-positive and Gram-negative organisms. The following applies: statement about monic acid A and its esters, earlier British applications; cited from earlier work.
[26] abbreviates: Haemophilus influenzae Wy21, nutrient agar containing 5% chocolated horse blood, read-out: M.I.C.
[27] abbreviates: Bacillus subtilis 6633, nutrient agar containing 5% chocolated horse blood, read-out: M.I.C.
The mark [28] stands for this setting: Past. multocida PAI, read-out: M.I.C.
The mark [29] stands for this setting: Past. haemolytica PA5, read-out: M.I.C.
Setting [30] is: Strep. pneumoniae CN33, nutrient agar containing 5% chocolated horse blood, read-out: M.I.C.

≈ marks a conversion by molar mass, not a printed value. Read-outs that look alike come from different tables or passages of the source.

Consider `CC(=CC(N)=O)CC1OCC(CC2OC2C(C)C(C)O)C(O)C1O` (stereo not shown) [Example 1, Primary amide of monic acid A], for which the MIC in experiment [1] amounted to 10 µg/mL (≈ 29.1 µM); in experiment [2], 5 µg/mL (≈ 14.6 µM); in [3] (setting [26]), 10 µg/mL (≈ 29.1 µM); in experiment [4], 2.5 µg/mL (≈ 7.28 µM); in experiment [5] (setting [27]), 100 µg/mL (≈ 291 µM); in experiment [6] it was 50 µg/mL (≈ 146 µM). Further, the MIC in experiment [7] was 100 µg/mL (≈ 291 µM); in experiment [8] (CN33), 100 µg/mL (≈ 291 µM); in experiment [9], 40 µg/mL (≈ 116 µM); in [10] (setting [28]), 40 µg/mL (≈ 116 µM); in [11] (setting [29]), 40 µg/mL (≈ 116 µM); in [12], more than 80 µg/mL. Moreover, the MIC was more than 80 µg/mL in experiment [13]; 20 µg/mL (≈ 58.2 µM) in experiment [14]; 20 µg/mL (≈ 58.2 µM) in experiment [15]; 1.9 µg/mL (≈ 5.53 µM) in experiment [16]; 15.6 µg/mL (≈ 45.4 µM) in experiment [17]; 15.6 µg/mL (≈ 45.4 µM) in [18]. For the same compound, the MIC in [19] came out at 7.8 µg/mL (≈ 22.7 µM); in experiment [20], 250 µg/mL (≈ 728 µM).

Turning to `CNC(=O)C=C(C)CC1OCC(CC2OC2C(C)C(C)O)C(O)C1O` (stereo not shown) [Example 2, N-Methylamide of monic acid A], the MIC in experiment [1] is 2.5 µg/mL (≈ 6.99 µM); in experiment [2], 0.2 µg/mL (≈ 0.56 µM); in experiment [4], 1 µg/mL (≈ 2.8 µM); in experiment [5] (setting [27]) it was 10 µg/mL (≈ 28 µM); in experiment [6], 2.5 µg/mL (≈ 6.99 µM); in [7] it was 25 µg/mL (≈ 69.9 µM). The MIC in experiment [8] (setting [30]) was 25 µg/mL (≈ 69.9 µM); in experiment [16] it was less than 0.5 µg/mL; in [17], 7.8 µg/mL (≈ 21.8 µM); in [18] it was 1 µg/mL (≈ 2.8 µM); in experiment [19], less than 0.5 µg/mL; in experiment [20] it was 125 µg/mL (≈ 350 µM).

As for `COC(=O)CNC(=O)C=C(C)CC1OCC(CC2OC2C(C)C(C)O)C(O)C1O` (stereo not shown) [Example 3, Methoxycarbonylmethylamide of monic acid A], the MIC was 12.5 µg/mL (≈ 30.1 µM) in experiment [1]; 1.2 µg/mL (≈ 2.89 µM) in experiment [2]; 1.2 µg/mL (≈ 2.89 µM) in experiment [3] (setting [26]); 25 µg/mL (≈ 60.2 µM) in experiment [4]; 25 µg/mL (≈ 60.2 µM) in experiment [5] (setting [27]); 25 µg/mL (≈ 60.2 µM) in experiment [6]. Moreover, the MIC in [7] is 125 µg/mL (≈ 301 µM); in [8] (setting [30]), 25 µg/mL (≈ 60.2 µM); in [9], 5 µg/mL (≈ 12 µM); in experiment [10] (setting [28]), 10 µg/mL (≈ 24.1 µM); in [11] (PA5), 5 µg/mL (≈ 12 µM); in [12], 40 µg/mL (≈ 96.3 µM). Also, the MIC in experiment [13] was more than 80 µg/mL; in experiment [14] it was 5 µg/mL (≈ 12 µM); in [15] it was 1.25 µg/mL (≈ 3.01 µM); in experiment [16], less than 0.5 µg/mL; in experiment [17] it was less than 0.5 µg/mL; in experiment [18], 62.5 µg/mL (≈ 150 µM). The MIC is 7.8 µg/mL (≈ 18.8 µM) in experiment [19] and 250 µg/mL (≈ 602 µM) in [20].

Take `CC(=CC(=O)N1CCOCC1)CC1OCC(CC2OC2C(C)C(C)O)C(O)C1O` (stereo not shown) [Example 6, Morpholinyl amide of monic acid A]: the MIC in experiment [1] stood at 1 µg/mL (≈ 2.42 µM); in [2] it was 0.2 µg/mL (≈ 0.484 µM); in [3] (Haemophilus influenzae, WY21) it was 0.5 µg/mL (≈ 1.21 µM); in experiment [21], 5 µg/mL (≈ 12.1 µM); in experiment [5] (Bacillus subtilis, 6633), 10 µg/mL (≈ 24.2 µM); in experiment [6], 10 µg/mL (≈ 24.2 µM). The MIC in experiment [7] turned out to be 50 µg/mL (≈ 121 µM); in experiment [8] (setting [30]), 10 µg/mL (≈ 24.2 µM); in experiment [9], 20 µg/mL (≈ 48.4 µM); in experiment [10] it was 0.625 µg/mL (≈ 1.51 µM); in experiment [11] (setting [29]), 20 µg/mL (≈ 48.4 µM); in [12], 20 µg/mL (≈ 48.4 µM). Moreover, the MIC is more than 80 µg/mL in experiment [13]; 2.5 µg/mL (≈ 6.05 µM) in experiment [14]; 2.5 µg/mL (≈ 6.05 µM) in experiment [15]; 2.5 µg/mL (≈ 6.05 µM) in experiment [22]; 1.25 µg/mL (≈ 3.02 µM) in experiment [23]; 2.5 µg/mL (≈ 6.05 µM) in experiment [16]. Moreover, the MIC in experiment [17] is 0.625 µg/mL (≈ 1.51 µM); in experiment [24], more than 10 µg/mL; in experiment [18], 0.156 µg/mL (≈ 0.377 µM); in [19], 10 µg/mL (≈ 24.2 µM); in experiment [20] it was more than 10 µg/mL.

On to `CC(=CC(=O)O)CC1OCC(CC2OC2C(C)C(C)O)C(O)C1O` (stereo not shown) [monic acid A], for which the antibacterial activity result in experiment [25] was “does not appear to have antibacterial activity”.
